Experiments:
[1] = target: T1, bovine COX-1 (Bos taurus, UniProt O62664); assay: Activity of isolated COX-1; format: biochemical
T1 construct: purchased Cayman Chemicals
T1 sequence (O62664 25-600): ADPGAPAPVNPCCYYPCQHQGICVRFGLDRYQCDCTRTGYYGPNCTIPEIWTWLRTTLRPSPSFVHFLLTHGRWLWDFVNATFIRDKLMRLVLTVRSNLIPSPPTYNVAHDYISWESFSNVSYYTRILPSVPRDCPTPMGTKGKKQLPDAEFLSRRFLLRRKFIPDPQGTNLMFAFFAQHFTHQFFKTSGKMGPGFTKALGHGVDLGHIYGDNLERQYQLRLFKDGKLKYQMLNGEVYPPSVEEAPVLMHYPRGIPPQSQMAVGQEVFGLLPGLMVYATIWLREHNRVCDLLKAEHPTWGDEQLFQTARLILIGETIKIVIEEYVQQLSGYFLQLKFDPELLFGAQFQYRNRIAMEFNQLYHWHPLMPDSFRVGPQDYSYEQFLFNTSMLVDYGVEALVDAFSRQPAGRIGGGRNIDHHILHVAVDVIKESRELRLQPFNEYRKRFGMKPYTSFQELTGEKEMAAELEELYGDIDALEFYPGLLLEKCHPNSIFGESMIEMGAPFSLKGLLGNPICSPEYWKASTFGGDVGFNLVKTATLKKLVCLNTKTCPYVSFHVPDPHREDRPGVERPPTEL
Description: (§1) Purified bovine COX-1 (Cayman Chemicals; 50 units) or human recombinant COX-2 (Cayman Chemicals; 20 units) in 100 mM Tris buffer pH 8, 5 mM glutathione, 5 µM hemoglobin, and 100 µM EDTA were pre-incubated with LCMs for 5 min at 4 °C followed by 1 min at 37 °C. Formation of COX-derived 12(S)-hydroxy-5-cis-8,10-trans-heptadecatrienoic acid (12-HHT) was initiated by addition of AA (COX-1: 5 μM; COX-2: 2 μM).

[2] = target: T2, human recombinant LTC4 synthase (LTC4S) (Homo sapiens, UniProt Q16873); assay: LTC4 synthase activity; format: biochemical
T2 construct: expressed in transfected cells; host or cells: HEK-293 cells stably expressing LTC4S (microsomal membranes)
T2 sequence (Q16873 1-150): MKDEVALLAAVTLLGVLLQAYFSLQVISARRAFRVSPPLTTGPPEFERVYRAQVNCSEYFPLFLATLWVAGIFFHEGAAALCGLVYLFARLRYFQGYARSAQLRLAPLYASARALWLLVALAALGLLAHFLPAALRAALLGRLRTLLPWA
Description: To investigate the effect of LCMs on LTC4S activity, we used microsomal membranes from HEK-293 cells stably expressing LTC4S[70]. […] The conversion of LTA4 to LTC4 methyl esters was initiated by addition of LTA4 methyl ester (Cayman Chemicals; 1 µM). After 10 min at 4 °C, the reaction was terminated by ice-cold methanol (one volume), and LTC-d5 methyl ester (5 ng; Cayman Chemicals) was added as internal standard. LTC4 was extracted and analyzed by UPLC-MS/MS as described for lipid mediators. Vehicle (DMSO)-treated microsomal membranes produced 7.1 ± 0.5 nmol LTC4.

[3] = tested on: intracellular Ca^2+; assay: Intracellular Ca2+ in fMLP-stimulated PMNL; format: cell-based, human
Description: PMNL (1 × 10^6) were incubated with Fura-2/AM (Thermo Fisher Scientific; 2 nmol) for 45 min at 37 °C, washed, resuspended in PBS pH 7.4 plus 1 mg/ml glucose and transferred to fluorescene 96-well microplates (Greiner). After pre-incubation with compounds for 10 min, 1 mM Ca^2+ was added, and cells were stimulated with fMLP (1 µM) for another 10 min. Intracellular Ca^2+ concentrations were determined using a thermally (37 °C) controlled NOVOstar fluorescence microplate reader [BMG Labtech, Ortenberg, Germany; emission at 510 nm, excitation at 340 nm (Ca^2+-bound Fura-2) and 380 nm (free Fura-2)][17]. The maximal fluorescence signal was recorded after lysis of […] with Triton X-100, and the minimal fluorescence was assessed by adding 20 mM EDTA to chelate Ca^2+. The difference in the signal ratio obtained with Triton X-100 and Triton X-100 plus 20 mM EDTA was set to 100% for each experiment.

[4] = tested on: PMNL; assay: Uptake of vitamin E metabolites by PMNL; format: in vitro ADME, human; conditions: 150 nM, 20 min; calculated for spherical PMNL, diameter 13 µm
Description: Freshly isolated PMNL (1 × 10^7/ml) were suspended in PBS pH 7.4 containing 1 mg/ml glucose. […] LCMs were extracted and analyzed by UPLC-MS/MS using γ-TE-13′-COOH (4g; 12.5 pmol) as internal standard. Intracellular vitamin E metabolite concentrations were calculated assuming spherical cell shape, an equal intracellular distribution, and an average diameter of 13 µm (as determined using a Vi-CELL Series Cell Counter, Beckman Coulter, Krefeld, Germany).

[5] = target: T3, COX-2 (Homo sapiens, UniProt P35354); assay: Activity of isolated COX-2; format: biochemical; design: purchased Cayman Chemicals; conditions: up to 10 µM
T3 sequence (P35354 18-604): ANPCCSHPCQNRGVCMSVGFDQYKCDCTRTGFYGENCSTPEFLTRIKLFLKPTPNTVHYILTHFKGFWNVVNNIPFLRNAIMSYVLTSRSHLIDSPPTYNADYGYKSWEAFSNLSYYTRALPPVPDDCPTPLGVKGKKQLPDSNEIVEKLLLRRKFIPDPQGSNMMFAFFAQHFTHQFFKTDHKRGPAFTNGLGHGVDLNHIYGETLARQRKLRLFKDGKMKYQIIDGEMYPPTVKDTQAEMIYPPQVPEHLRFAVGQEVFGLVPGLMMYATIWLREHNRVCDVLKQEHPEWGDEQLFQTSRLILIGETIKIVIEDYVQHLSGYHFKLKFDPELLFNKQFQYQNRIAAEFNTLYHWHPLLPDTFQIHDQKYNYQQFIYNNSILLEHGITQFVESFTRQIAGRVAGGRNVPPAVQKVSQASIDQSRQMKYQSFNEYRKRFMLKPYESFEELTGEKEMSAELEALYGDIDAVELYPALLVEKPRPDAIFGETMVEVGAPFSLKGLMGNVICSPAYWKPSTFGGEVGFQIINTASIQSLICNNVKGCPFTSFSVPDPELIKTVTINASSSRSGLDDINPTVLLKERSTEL
Description: as §1

Cc1c(C)c2c(c(C)c1O)CC[C@@](C)(CCCC(C)CCCC(C)CCCC(C)C(=O)O)O2 (stereo partly drawn) [4a, 13-((2R)-6-hydroxy-2,5,7,8-tetramethylchroman-2-yl)-2,6,10-trimethyltridecanoic acid]
IC50 [1]: > 10 µM
IC50 [2]: 9.9 µM
effect on intracellular Ca^2+ [3]: neither affected
intracellular concentration reached in PMNL [4]: micromolar
inhibition of human recombinant COX-2 [5]: not inhibited
